Assay results published in US9526721B2, “Tetrahydroprotoberbine compounds and uses thereof in the treatment of neurological, psychiatric and neurodegenerative diseases” (priority 2012, dated 2016).
Read-outs that look alike come from different tables or passages of the source. Marks after values point to notes of the source that are not given here.

How the values were obtained:
rats [1] = test: Temporal order recognition (radial arm maze); conditions: 1.0 mg/kg govadine isomers, 5.0 mg/kg clozapine
Method: The task exploits a rat's natural preference for novel locations. Each animal received 3 separate trials where access to two arms of an eight arm radial arm maze was granted. During the first trial, two arms were selected at random for exploration, and animals were allowed to explore these arms for 2 min After this time, they were taken off the maze and returned to their home cage. 1 hour later they were placed back on the maze and two new arms were randomly selected for 2 min of exploration.
Time spent in each arm (recent and old) was recorded as well as total distance traveled and the total number of arm entries in Noldus EthoVision 3.1 (Leesburg, Va.).

D2L [2] = biological target: T1, D2L (Homo sapiens, UniProt P14416); conditions: Xu, S. X. et al., 1989; comparison ligand 0.16 nM Spiperone; cited from earlier work
T1 construct: host or cells: CHO cells

D1/D2 [3] = conditions: cited from earlier work
rats [4] = conditions: Natesan et al., 2008; cited from earlier work
rats [5] = conditions: Natesan et al., 2008; listed as 1-SPD; cited from earlier work
rats [6] = conditions: Natesan et al., 2008; cited from earlier work; remark: listed apart in the source
D1 [7] = biological target: T2, D1 (Homo sapiens, UniProt P21728); conditions: read-out: D1 (Ki); Xu, S. X. et al., 1989; comparison ligand 0.14 nM SCH-23390; cited from earlier work
D2L [8] = biological target: T1, D2L; test: Receptor binding, dopamine D2L; conditions: present data; comparison ligand 0.16 nM Spiperone; read-out: D2L (Ki)
Method: (§1) All receptors tested were heterologously expressed CHO cells and IC50 values were determined by a non-linear, least squares regression analysis using MathIQ (ID Business Solution Ltd, UK). Ki was calculated using the equation of Cheng and Prusoff (1973, Biochem. Pharmacol 22:23099-3108) derived from the observed IC50 of the tested compound, the concentration of radioligand employed in the assay, and the historical values for the Kd of the ligand (obtained experimentally at MDS Pharma Services).
(§2) All receptors were heterologously expressed CHO cells and IC50 values were determined by a non-linear, least squares regression analysis using MathIQ (ID Business Solution Ltd, UK). K1 was calculated (Y. Cheng & Prusoff 1973) from the observed IC50 of the tested compound, the concentration of radioligand employed in the assay, and the historical values for the Kd of the ligand (obtained experimentally at MDS Pharma Services).

D1/D2 [9] = test: D1/D2 affinity ratio; assay type: binding; conditions: present data
Method: as §2

Catalepsy (bar test) = assay type: in vivo, rat; conditions: rat, in vivo; present data; SC, 45 min time point
Method: (§3) Testing occurred in a plexiglas box (28 cm×45 cm×20 cm) containing a horizontal steel bar located 8 cm above floor level. […] After injection animals were returned to the test box and catalepsy testing occurred at 1, 15, 30, and 45 minutes after injection. Testing at each time point lasted 2 min after the forepaws of each rat was placed on the bar. Behavior was recorded with a video camera (Cohu, Poway, Calif.) and scored off-line. The cumulative time spent immobilized with both forelimbs on the horizontal bar was scored for each 2 min test epoch. Videos selected at random were scored independently by a second observer and a high inter-rater reliability was observed (R^2=0.93, F=393.4, p<0.05).
(§4) Catalepsy testing was conducted as described in Example 12.

rats [10] = test: Catalepsy (bar test); assay type: in vivo, rat
Method: as §3, §4

rats [11] = test: Latent inhibition; assay type: in vivo, rat
Method: Sensitization: Animals were removed from the colony and taken to a holding room where they received either IP d-AMPH or saline every Monday, Wednesday, and Friday. Doses started at 1 mg/kg and increased 1 mg/kg each week over 5 weeks to 5 mg/kg. 25 days after the induction phase, behavioral sensitization was assessed over 3 days in locomotor chambers (plexiglass box, 40 cm×40 cm×40 cm) where speed and distance traveled were recorded using Noldus Ethovision XT (Noldus, Leesburg, Va.). The first day consisted of a 2 hr acclimation session, and prior to counter balanced injections of either 0.5 mg/kg d-AMPH or saline on days 2 and 3 animals were acclimated for 1 hr. Experiments were run in two separate cohorts of 30 animals to minimize the time between testing sensitization and LI.
Latent Inhibition: LI tests were performed in rats treated with 1.0 mg/kg acute d-AMPH, sensitized rats, and drug-naive rats. LI testing began 5 days post-challenge of the escalating dose regime. Animals in both conditions (chronic saline or sensitized) were randomly assigned to either non-pre-exposed (NPE) or pre-exposed (PE) groups. Testing took place over 3 consecutive days. […] Animals in the PE group received 50 presentations of the CS (10 sec duration) per day at a variable interval for the first two days. Animals in the NPE group were placed in the chamber for an equal time as the PE animals. Conditioning (COND) consisted of 100 CS-US pairings. Latency to cross into the other compartment and the number of total beam breaks were recorded. Drug-naïve animals receiving acute 1.0 mg/kg AMPH were injected IP 45 min before the COND trial.
The effects of the two individual enantiomers of govadine on latent inhibition (LI) were also tested as described in Example 12.

D1 [12] = biological target: T2, D1; test: Receptor binding, dopamine D1; parameters: host or cells: CHO cells; conditions: present data; comparison ligand 0.14 nM SCH-23390; read-out: D1 (Ki)
Method: as §1, §2

rats [13] = test: Amphetamine-induced locomotion (AIL); conditions: Rattus norvegicus, ip, 1 h, read-out: AIL (ED50)
Method: Animals were habituated to the locomotor arena for 1 hr on 4 consecutive days prior to testing. Locomotor activity was assessed on day 1 of habituation and treatment groups were assigned in a counter balanced fashion depending on locomotor activity on this day.
After d-AMPH/SAL injection, distance travelled was assessed for 1 hr. Distance travelled was recorded with Noldus Ethovision XT (Noldus, Leesburg, Va.) and analyzed off-line.
Amphetamine induced locomotion (AIL): Animals were habituated to locomotor arenas for 1 hr on 4 consecutive days prior to testing. Locomotor activity was assessed on day 1 of habituation and treatment groups were assigned in a counter-balanced manner determined by distance traveled on day 1. […] Distance traveled was recorded with Noldus Ethovision XT (Noldus, Leesburg, Va.) and analyzed off-line.

rats [14] = test: Conditioned avoidance responding (CAR)
Method: Conditioned avoidance responding (CAR) was performed in a two-way avoidance procedure with drug naive rats in four shuttle boxes (Med Associates, Vt., USA) each consisting of two compartments separated by an open door. Each compartment contained a wall-mounted speaker, house light and 5 photocells to detect the location of the animal. All experimental protocols and data acquisition were controlled by custom programs written in MED-PC.
Before training, each animal received two acclimation sessions lasting 30 min with only the house light illuminated. […] Pairings of the conditioned stimulus (CS) (white noise, ˜60 dB) and the unconditioned stimulus (US) (footshock, 0.75 mA) were presented at random intervals with a mean of 60 sec. The CS was presented for 10 sec. During this time, if the animal moved to the opposite side of the box, the white noise was silenced, no foot shock delivered, and an avoidance response was scored. Upon termination of the 10 sec tone, if the animal had not moved to the opposite side of the box, a foot-shock was administered for 2 sec. […] Failure to avoid or escape constituted a response failure and was scored accordingly. After reaching a criterion of 90% avoidances for a block of 20 trials, usually achieved with ˜100 CS-US pairings, each animal advanced to the drug-testing phase. Animals not meeting the criterion by 120 pairings were excluded from the study.
Pairings were presented just as during training and were scored in the same fashion. The test trial consisted of 100 CS-US pairings.

rats [15] = test: Microdialysis of prefrontal cortex and nucleus accumbens;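 note: dialysate collected every 10 min from freely moving rats, analysed by HPLC with electrochemical detection, after four stable baseline samples (under 10% variation) preceding drug dosing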
Method: Rats received subcutaneous injections of an analgesic (ketoprofen 0.05 mL or buprenorphine, 0.1 mL) and sterile saline (0.9% NaCl, ˜3 mL). Once shaved and cleaned, the heads were secured in the stereotaxic frame in flat skull position for bilateral implantation of stainless steel microdialysis guide cannulae (19 gauge×15 mm) in the nucleus accumbens (NAc) (from bregma +1.7 mm anterior and ±1.1 mm medial; from dura −1.0 mm ventral) or medial prefrontal cortex (mPFC) (+3.0 mm anterior, ±0.6 mm medial; −1.0 mm ventral). […] Rats were allowed to rest with heat support until they regained consciousness, and then given a one-week recovery period.
Microdialysis probes were assembled 1-2 days prior to microdialysis experiments. Probes were concentric in design, constructed from Filtral 12 AN69HF semi-permeable hollow fibres (2 mm length, 340 μm OD×4 mm, 65 kDalton molecular weight cut-off; Hospal, Neurnberg, Germany) and silica inlet-outlet lines (75/150 um ID/OD).
The day prior to microdialysis experiments, probes were connected to an Instech dual-channel liquid swivel (Plymouth Meeting, Pa.) and flushed with artificial cerebrospinal fluid (aCSF). […] Following DA recovery tests, probes were implanted via the guide cannulae (dialysis membrane spanned −4.8 to −6.8 mm ventrally for NAc; −1.6 to −3.6 mm for mPFC). Rats remained in the testing chamber overnight (14-16 hr) with aCSF perfusing continuously through the probes at 1 μL/min In the morning, microdialysis samples were collected at 10 min intervals and assayed for DA, DOPAC, homovanillic acid (HVA) and 5-HIAA content. Once baseline levels were determined to be stable for four consecutive samples (less than 10% fluctuation), the drug treatment phase of each experiment was initiated.
Microdialysis samples were analyzed immediately after collection using high pressure liquid chromatography (HPLC) with electrochemical detection. […] The mobile phase [70 mM sodium acetate buffer, 40 mg/L EDTA and 50 mg/L of sodium dodecyl sulfate (adjustable), pH 4.0, 10% methanol] flowed through the system at 0.17 mL/min EZChrome Elite software (Scientific Software, Pleasanton, Calif.) was used to acquire and analyze chromatographic data.
After the experiments, rats were deeply anesthetized, brains were removed and stored in 20% w/v sucrose and 4% v/v paraformaldehyde. Brains were sliced into 50 um coronal sections, stained with cresyl violet and examined for probe placement.
Microdialysis probes (2 mm active membrane) were implanted in the NAc and mPFC ˜16 hrs prior to start of the experiment and continuously perfused aCSF.

[16] = microdialysis, nucleus accumbens
[17] = microdialysis, prefrontal cortex

T2 sequence (P21728 whole entry): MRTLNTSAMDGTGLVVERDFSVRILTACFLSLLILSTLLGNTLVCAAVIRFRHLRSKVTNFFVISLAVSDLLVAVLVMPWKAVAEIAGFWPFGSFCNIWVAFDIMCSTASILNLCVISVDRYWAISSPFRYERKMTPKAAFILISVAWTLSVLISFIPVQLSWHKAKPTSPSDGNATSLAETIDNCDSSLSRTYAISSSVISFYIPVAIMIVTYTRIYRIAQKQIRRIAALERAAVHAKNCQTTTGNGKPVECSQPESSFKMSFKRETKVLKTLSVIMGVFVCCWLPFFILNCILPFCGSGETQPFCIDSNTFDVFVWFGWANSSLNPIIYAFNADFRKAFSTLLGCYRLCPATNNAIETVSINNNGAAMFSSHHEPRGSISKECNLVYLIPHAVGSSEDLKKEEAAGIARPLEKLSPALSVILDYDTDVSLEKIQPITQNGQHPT
T1 sequence (P14416 whole entry): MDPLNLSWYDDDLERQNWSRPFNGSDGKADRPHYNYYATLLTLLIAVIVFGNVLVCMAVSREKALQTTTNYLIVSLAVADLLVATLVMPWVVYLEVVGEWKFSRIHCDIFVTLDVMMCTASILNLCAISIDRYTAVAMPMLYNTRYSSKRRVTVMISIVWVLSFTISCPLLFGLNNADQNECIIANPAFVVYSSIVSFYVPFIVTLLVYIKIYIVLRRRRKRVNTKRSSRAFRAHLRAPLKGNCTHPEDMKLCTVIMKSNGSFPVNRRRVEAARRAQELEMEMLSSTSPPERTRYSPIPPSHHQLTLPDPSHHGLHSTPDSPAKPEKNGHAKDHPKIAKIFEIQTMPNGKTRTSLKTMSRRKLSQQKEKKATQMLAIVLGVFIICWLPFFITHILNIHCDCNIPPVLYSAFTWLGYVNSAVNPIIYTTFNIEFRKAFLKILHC

Compound: CN1CCN(C2=Nc3cc(Cl)ccc3Nc3ccccc32)CC1 [Clozapine, reference compound]
- Arm Entries (rats [1]; 45 min. delay): 7.0 ± 1.9
- Distance Travelled (rats [1]; 45 min. delay): 1286 ± 177
- Arm Entries (rats [1]; 4 hr. delay): 6.0 ± 1.6
- Distance Travelled (rats [1]; 4 hr. delay): 1098 ± 74

Compound: COc1cc2c(cc1O)[C@@H]1Cc3ccc(O)c(OC)c3CN1CC2 [l-Stepholidine, l-stepholidine]
- Ki (D2L [2]): 85 nM
- D1/D2 (D1/D2 [3]; Natesan et al., 2008): 0.850*
- D1/D2 (D1/D2 [3]; Xu, S. X. et al., 1989): 0.150**
- AIL (ED50) (rats [4]): 2.36* mg/kg
- CAR (ED50) (rats [5]): 0.27 mg/kg
- Catalepsy (ED50) (rats [6]): 3.6 mg/kg
- Ki (D1 [7]): 13 nM

Compound: COc1cc2c(cc1O)CN1CCc3cc(OC)c(O)cc3C1C2 (racemic) [dl-govadine]
- Ki (D2L [8]): 283 nM
- D1/D2 (D1/D2 [9]): 0.023#
- ED50 at 45 min (Catalepsy (bar test)): 4.7 mg/kg
- catalepsy observed (rats [10]; 1.0 mg/kg SC): mild motor suppression
- catalepsy observed (rats [10]; 6.0 mg/kg SC): Strong and extended catalepsy
- catalepsy (immobilized contact time) (rats [10]; SC, across doses tested): dose-dependent increase
- latent inhibition in non-sensitized animals (rats [11]; 1.0 mg/kg SC before each pre-exposure session): no subsequent effect on LI
- latent inhibition in d-AMPH sensitized animals (rats [11]; 1.0 mg/kg SC before each pre-exposure, 5-week escalating d-AMPH): restored LI to levels observed in controls
- latent inhibition in acute d-AMPH-treated animals (rats [11]; treatment before each pre-exposure, 1.0 mg/kg d-AMPH before conditioning): restored LI
- Ki (D1 [12]): 6.7 nM
- ED50 at […] (rats [13]): 1.7 mg/kg
- ED50 (rats [14]; Rattus norvegicus, sc, 20 min, read-out: CAR (ED50), present data, SC, 20 min post-injection): 0.723 mg/kg
- escapes in CAR (rats [14]; SC, 100 CS-US pairings): increase in escapes
- suppression of conditioned avoidance responding (avoidances) (rats [14]; SC, 100 CS-US pairings): dose-dependently suppressed avoidances
- CAR (ED50) (rats [14]; present data, SC, 20 min post-injection): 0.720# mg/kg
- effect of repeated treatment in CAR (rats [14]; repeated treatment, FIG. 14): Neither of these effects was observed
- DA efflux in NAc and mPFC compared to control (rats [15]; 1 mg/kg, Example 15): enhanced DA efflux
- 5-HIAA in NAc (rats [15]; [16]): No increase
- DOPAC in NAc (rats [15]; [16]): Increases
- HVA in NAc (rats [15]; [16]): Increases
- dopamine level in NAc (rats [15]; [16]): increased
- 5-HIAA in PFC (rats [15]; [17]): No increase
- DOPAC in PFC (rats [15]; [17]): Increases
- HVA in PFC (rats [15]; [17]): Increases
- dopamine level in PFC (rats [15]; [17]): increased
